Measured values reported in BindingDB's records for doi:10.1016/0960-894X(96)00438-6 (1996).

Test: In vitro inhibition of thrombin-induced human gel-filtered platelet aggregation.

For `O=C(NCCc1nnn[nH]1)C1CCCN(C(=O)CCC2CCNCC2)C1` (stereo not given) [1-(3-Piperidin-4-yl-propionyl)-piperidine-3-carboxylic acid [2-(1H-tetrazol-5-yl)-ethyl]-amide], the IC50 was 40 µM.

In the case of `O=C(O)C(O)CNC(=O)[C@@H]1CCCN(C(=O)CCC2CCNCC2)C1` (stereo partly drawn) [2-Hydroxy-3-{[(R)-1-(3-piperidin-4-yl-propionyl)-piperidine-3-carbonyl]-amino}-propionic acid], the IC50 is reported as 0.8 µM.

For `CC(CNC(=O)C1CCCN(C(=O)CCC2CCNCC2)C1)C(=O)O` (stereo not given) [2-Methyl-3-{[1-(3-piperidin-4-yl-propionyl)-piperidine-3-carbonyl]-amino}-propionic acid], the IC50 was over 10 µM.

Work on `COC(=O)C(CC(=O)O)NC(=O)C1CCCN(C(=O)CCC2CCNCC2)C1` (stereo not given) [2-{[1-(3-Piperidin-4-yl-propionyl)-piperidine-3-carbonyl]-amino}-succinic acid 1-methyl ester] yielded an IC50 of 1 µM.

In the case of `O=C(O)CCNC(=O)C1CCCN(C(=O)OCC2CCNCC2)C1` (stereo not given) [3-(2-Carboxy-ethylcarbamoyl)-piperidine-1-carboxylic acid piperidin-4-ylmethyl ester], the IC50 is reported as 5 µM.

With `CN(CCC(=O)O)C(=O)C1CCCN(C(=O)CCC2CCNCC2)C1` (stereo not given) [3-{Methyl-[1-(3-piperidin-4-yl-propionyl)-piperidine-3-carbonyl]-amino}-propionic acid] the IC50 was 28 µM.

Work on `O=C(O)C1CCCC(NC(=O)C2CCCN(C(=O)CCC3CCNCC3)C2)C1` (stereo not given) [3-{[1-(3-Piperidin-4-yl-propionyl)-piperidine-3-carbonyl]-amino}-cyclohexanecarboxylic acid] yielded an IC50 of over 50 µM.

For `O=C(O)C[C@H](NC(=O)[C@@H]1CCCN(C(=O)CCC2CCNCC2)C1)c1ccc2c(c1)OCO2` [(S)-3-Benzo[1,3]dioxol-5-yl-3-{[(R)-1-(3-piperidin-4-yl-propionyl)-piperidine-3-carbonyl]-amino}-propionic acid], the IC50 was 0.02 µM.

Molecule `O=C(O)C[C@H](NC(=O)[C@@H]1CCCN(C(=O)CCC2CCNCC2)C1)c1cccs1` [(S)-3-{[(R)-1-(3-Piperidin-4-yl-propionyl)-piperidine-3-carbonyl]-amino}-3-thiophen-2-yl-propionic acid] has an IC50 of 0.09 µM.

Work on `O=C(O)C[C@@H](C#Cc1ccccc1)NC(=O)[C@@H]1CCCN(C(=O)CCC2CCNCC2)C1` [(S)-5-Phenyl-3-{[(R)-1-(3-piperidin-4-yl-propionyl)-piperidine-3-carbonyl]-amino}-pent-4-ynoic acid] yielded an IC50 of 0.08 µM.
